Test results taken from patent publication US4500526A, “Cephalosporin derivatives” (Bristol-Myers Company, priority 1983, dated 1985).
≈ marks a conversion by molar mass, not a printed value.

Assays:
[1] = system: Cephalothinsensitive E. coli (2 strains), Kl. pneumoniae (1 strain) and Pr. mirabilis (2 strains); test: MIC, two-fold serial agar dilution, group (G-)-Ia; assay type: cell-based; settings: 5 strains, Mueller-Hinton agar, read-out: Geometric Mean of MIC
Procedure, shortened: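 Mueller-Hinton agar, two-fold serial dilution; test compound weights corrected for purity so MICs reflect actual compound content.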

E. coli Juhl = test: Median protective dose in infected mice; assay type: in vivo; settings: Escherichia coli, im, immediately after intraperitoneal challenge, read-out: PD50
Description: (§1) The median protective dose (PD50) of some of the preferred compounds against various microorganisms was determined in mice by intramuscular administration of the test compound immediately after an intraperitoneal bacterial challenge.

S. aureus Smith = test: Median protective dose in infected mice; assay type: in vivo; settings: Staphylococcus aureus, im, immediately after intraperitoneal challenge, read-out: PD50
Description: as §1

S. aureus BX-1633 = test: Median protective dose in infected mice; assay type: in vivo; settings: Staphylococcus aureus, BX1633, im, immediately after intraperitoneal challenge, read-out: PD50
Description: as §1

P. aeruginosa A9843 = test: Median protective dose in infected mice; assay type: in vivo; settings: Pseudomonas aeruginosa, im, immediately after intraperitoneal challenge, read-out: PD50
Description: as §1

P. aeruginosa A21509 = test: Median protective dose in infected mice; assay type: in vivo; settings: Pseudomonas aeruginosa, im, immediately after intraperitoneal challenge, read-out: PD50
Description: as §1

[2] = system: M. morganii (1 strain), Ent. cloacae (2 strains) and Ser. marcescens (2 strains); test: MIC, two-fold serial agar dilution, group (G-)-II; assay type: cell-based; settings: (G-)-II, 5 strains, Mueller-Hinton agar; read-out: Geometric Mean of MIC
Procedure, shortened: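 Two-fold serial agar dilution in Mueller-Hinton agar; test-compound sample weights adjusted for purity of each compound before MIC determination.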

[3] = system: Penicillinresistant S. aureus (5 strains); test: MIC, two-fold serial agar dilution, group (G+)-Ib; assay type: cell-based; settings: Staphylococcus aureus; (G+)-Ib, 5 strains, Mueller-Hinton agar; read-out: Geometric Mean of MIC
Procedure, shortened: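 Two-fold serial agar dilution in Mueller-Hinton agar against penicillin-resistant S. aureus (5 strains). Test compound weights adjusted for purity.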

[4] = system: H. influenzae (7) (ampicillin sensitive); test: In vitro activity against fastidious bacteria, two-fold serial agar dilution; assay type: cell-based; settings: Haemophilus influenzae, GC agar, 7 strains, read-out: Geometric Mean of MIC
Description: The in vitro activity of some of the preferred compounds against 30 strains of fastidious bacteria was determined by the two-fold serial agar dilution method in Gonococcus agar (GC agar), and the results are shown in Table 3.

S. pyogenes A20201 = test: Median protective dose in infected mice; assay type: in vivo; settings: Streptococcus pyogenes, im, immediately after intraperitoneal challenge, read-out: PD50
Description: as §1

Row | SMILES | MIC [1] | ED50 (E. coli Juhl) | ED50 (S. aureus Smith) | ED50 (S. aureus BX-1633) | ED50 (P. aeruginosa A9843) | ED50 (P. aeruginosa A21509) | MIC [2] | MIC [3] | MIC [4] | ED50 (S. pyogenes A20201)
1 | CO/N=C(\C(=O)NC1C(=O)N2C(C(=O)[O-])=C(C[n+]3ccc4scnc4c3)CS[C@H]12)c1csc(N)n1 (stereo partly drawn) [Ia, 7-[(Z)-2-(2-Aminothiazol-4-yl)-2-methoxyiminoacetamido]-3-{(5-thiazolo[4,5-c]pyridinio)methyl}-3-cephem-4-carboxylate] | 0.02 µg/mL (≈ 0.0376 µM) | 0.012 mg/kg | 0.45 mg/kg | 0.75 mg/kg | 7.2 mg/kg | 6.25 mg/kg | 0.16 µg/mL (≈ 0.301 µM) | 0.96 µg/mL (≈ 1.81 µM) |  | 
2 | CC(C)(O/N=C(\C(=O)NC1C(=O)N2C(C(=O)[O-])=C(C[n+]3ccc4scnc4c3)CS[C@H]12)c1csc(N)n1)C(=O)O (stereo partly drawn) [Id, 7-[(Z)-2-(2-Aminothiazol-4-yl)-2-(2-carboxyprop-2-oxyimino)-acetamido]-3-{(5-thiazolo[4,5-c]pyridinio)methyl}-3-cephem-4-carboxylate] | 0.04 µg/mL (≈ 0.0663 µM) | 0.082 mg/kg | 7.2 mg/kg | 21 mg/kg | 4.3 mg/kg | 5 mg/kg | 0.88 µg/mL (≈ 1.46 µM) | 8.8 µg/mL (≈ 14.6 µM) | 0.1 µg/mL (≈ 0.166 µM) | 0.23 mg/kg
